Assay results from patent US12146004B2, “Polymyxin compounds and uses thereof” (priority 2014, dated 2024).
Converted amounts (≈) assume the structure as drawn. Numbered stars: 1 amine (or outer) side, 2 acyl side, 3 side chain; on linkers, the order of the positions; unused ones are H or OH. Bridge positions count the residues as written; N and C are the ends. Square brackets hold non-standard residues; d marks the D form. Peptide text beside a SMILES is read from it. * marks the point of attachment. ξ: configuration not given here. X17 = CCCCCCN([C@@H](CCN)C(=O)[*:2])[*:1]; ξHexahydromandeloyl = O=C(C(O)C1CCCCC1)*; X23 = NCC[C@H](OCc1ccccc1)C(=O)*; dCha = N[C@H](CC1CCCCC1)C(=O)O; Thr(3ξ) = CC(O)[C@H](N)C(=O)O; X1 = CC(C)CN1CCNC[C@H]1C(=O)*; X25 = CCCCO[C@@H](CCN)C(=O)*; X20 = NCC(Cc1ccccc1F)C(=O)*; Dab = NCC[C@H](N)C(=O)O; Dap = NC[C@H](N)C(=O)O; X18 = CCCCC(CCN)C(=O)*

What was measured:
Format in all cases: cell-based
Acinetobacter baumannii = system: Acinetobacter baumannii
Method in brief: (§1)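 In vitro susceptibility was determined across up to nine strains of each pathogen, some resistant. Potency is given as MIC, μg/mL.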

Escherichia coli = system: Escherichia coli
Method in brief: as §1

Klebsiella pneumoniae = system: Klebsiella pneumoniae
Method in brief: as §1

Pseudomonas aeruginosa = system: Pseudomonas aeruginosa
Method in brief: as §1

Structure (SMILES) | MIC A. baumanii ATCC BAA-747 (Acinetobacter baumannii) | MIC A. baumanii NCTC 13424 (Acinetobacter baumannii) | MIC E. coli 058 (Escherichia coli) | MIC E. coli ATCC 25922 (Escherichia coli) | MIC E. coli NCTC 9001 (Escherichia coli) | MIC K. pneumoniae 065 (Klebsiella pneumoniae) | MIC K. pneumoniae ATCC 13882 (Klebsiella pneumoniae) | MIC P. aeruginosa ATCC 27853 (Pseudomonas aeruginosa) | MIC P. aeruginosa CCUG 59347 (Pseudomonas aeruginosa) | MIC A. baumanii 053 (Acinetobacter baumannii) | MIC A. baumanii 056 (Acinetobacter baumannii) | MIC E. coli 061 (Escherichia coli) | MIC K. pneumoniae 063 (Klebsiella pneumoniae) | MIC P. aeruginosa 068 (Pseudomonas aeruginosa) | MIC P. aeruginosa 070 (Pseudomonas aeruginosa)
CC(C)C[C@@H]1NC(=O)[C@@H](CC2CCCCC2)NC(=O)[C@H](CCN)NC(=O)[C@@H](NC(=O)[C@H](CCN)NC(=O)[C@@H](NC(=O)[C@H](CCN)NC(=O)C(O)C2CCCCC2)C(C)O)CCNC(=O)[C@H]([C@@H](C)O)NC(=O)[C@H](CCN)NC(=O)[C@H](CCN)NC1=O (stereo partly shown) [Example 37] (ξHexahydromandeloyl-[Dab][Thr(3ξ)][Dab][Dab][Dab][dCha]L[Dab][Dab]T; lactam 4-C) | 0.125 µg/mL (≈ 0.103 µM) | 0.5 µg/mL (≈ 0.413 µM) | 8 µg/mL (≈ 6.61 µM) | 0.06 µg/mL (≈ 0.0496 µM) | 0.06 µg/mL (≈ 0.0496 µM) | 16 µg/mL (≈ 13.2 µM) | 0.25 µg/mL (≈ 0.207 µM) | 0.5 µg/mL (≈ 0.413 µM) | 0.5 µg/mL (≈ 0.413 µM) |  |  |  |  |  | 
CCCCC(CCN)C(=O)N[C@H](C(=O)N[C@@H](CCN)C(=O)N[C@H]1CCNC(=O)[C@H]([C@@H](C)O)NC(=O)[C@H](CCN)NC(=O)[C@H](CCN)NC(=O)[C@H](CC(C)C)NC(=O)[C@@H](CC2CCCCC2)NC(=O)[C@H](CCN)NC1=O)C(C)O (stereo partly drawn) [Example 40, 2-(2-aminoethyl) hexanoyl [D-cyclohexylalanine]-6 nonapeptide.] (X18-[Thr(3ξ)][Dab][Dab][Dab][dCha]L[Dab][Dab]T; lactam 3-C) | 0.06 µg/mL (≈ 0.054 µM) | 0.125 µg/mL (≈ 0.113 µM) | 8 µg/mL (≈ 7.2 µM) | 0.125 µg/mL (≈ 0.113 µM) | 0.03 µg/mL (≈ 0.027 µM) | 2 µg/mL (≈ 1.8 µM) | 0.25 µg/mL (≈ 0.225 µM) | 0.5 µg/mL (≈ 0.45 µM) | 0.5 µg/mL (≈ 0.45 µM) | >64 µg/mL | 64 µg/mL (≈ 57.6 µM) | 16 µg/mL (≈ 14.4 µM) | 16 µg/mL (≈ 14.4 µM) | 4 µg/mL (≈ 3.6 µM) | 8 µg/mL (≈ 7.2 µM)
CCCCO[C@@H](CCN)C(=O)N[C@H](C(=O)N[C@@H](CN)C(=O)N[C@H]1CCNC(=O)[C@H]([C@@H](C)O)NC(=O)[C@H](CCN)NC(=O)[C@H](CCN)NC(=O)[C@H](CC(C)C)NC(=O)[C@@H](CC2CCCCC2)NC(=O)[C@H](CCN)NC1=O)C(C)O (stereo partly drawn) [Example 46, (S)-4-amino-2-butoxybutanoyl L-Thr-L-Dap-polymyxin [D-cyclohexylalanine]-6 heptapeptide.] (X25-[Thr(3ξ)][Dap][Dab][Dab][dCha]L[Dab][Dab]T; lactam 3-C) | 0.125 µg/mL (≈ 0.112 µM) | 0.125 µg/mL (≈ 0.112 µM) | 8 µg/mL (≈ 7.19 µM) | 0.125 µg/mL (≈ 0.112 µM) |  | 2 µg/mL (≈ 1.8 µM) | 0.25 µg/mL (≈ 0.225 µM) | 0.5 µg/mL (≈ 0.449 µM) | 0.5 µg/mL (≈ 0.449 µM) | >64 µg/mL | >64 µg/mL |  | >64 µg/mL | 16 µg/mL (≈ 14.4 µM) | 32 µg/mL (≈ 28.8 µM)
CC(C)C[C@@H]1NC(=O)[C@@H](CC2CCCCC2)NC(=O)[C@H](CCN)NC(=O)[C@@H](NC(=O)[C@H](CN)NC(=O)[C@@H](NC(=O)[C@H](CCN)OCc2ccccc2)C(C)O)CCNC(=O)[C@H]([C@@H](C)O)NC(=O)[C@H](CCN)NC(=O)[C@H](CCN)NC1=O (stereo partly drawn) [Example 48, (S)-4-amino-2-(benzyloxy) butanoyl L-Thr-L-Dap-polymyxin [D-cyclohexylalanine]-6 heptapeptide.] (X23-[Thr(3ξ)][Dap][Dab][Dab][dCha]L[Dab][Dab]T; lactam 3-C) | 0.125 µg/mL (≈ 0.109 µM) | 0.25 µg/mL (≈ 0.218 µM) | 4 µg/mL (≈ 3.49 µM) | 0.125 µg/mL (≈ 0.109 µM) |  | 5 µg/mL (≈ 4.36 µM) | 0.125 µg/mL (≈ 0.109 µM) | 0.25 µg/mL (≈ 0.218 µM) | 0.25 µg/mL (≈ 0.218 µM) | >64 µg/mL | 32 µg/mL (≈ 27.9 µM) | 32 µg/mL (≈ 27.9 µM) | 64 µg/mL (≈ 55.8 µM) | 8 µg/mL (≈ 6.98 µM) | 16 µg/mL (≈ 14 µM)
CCCCCCN[C@@H](CCN)C(=O)N[C@H](C(=O)N[C@@H](CN)C(=O)N[C@H]1CCNC(=O)[C@H]([C@@H](C)O)NC(=O)[C@H](CCN)NC(=O)[C@H](CCN)NC(=O)[C@H](CC(C)C)NC(=O)[C@@H](CC2CCCCC2)NC(=O)[C@H](CCN)NC1=O)C(C)O (stereo partly drawn) [Example 49, (S)-4-amino-2-(hexylamino) butanoyl L-Thr-L-Dap-polymyxin [D-cyclohexylalanine]-6 heptapeptide.] (H-[X17][Thr(3ξ)][Dap][Dab][Dab][dCha]L[Dab][Dab]T; lactam 4-C) | 0.5 µg/mL (≈ 0.439 µM) | 0.25 µg/mL (≈ 0.219 µM) | 2 µg/mL (≈ 1.76 µM) | 0.5 µg/mL (≈ 0.439 µM) | 0.125 µg/mL (≈ 0.11 µM) | 2 µg/mL (≈ 1.76 µM) | 0.5 µg/mL (≈ 0.439 µM) | 0.25 µg/mL (≈ 0.219 µM) | 0.25 µg/mL (≈ 0.219 µM) | 64 µg/mL (≈ 56.2 µM) | 64 µg/mL (≈ 56.2 µM) | 16 µg/mL (≈ 14 µM) | 32 µg/mL (≈ 28.1 µM) | 2 µg/mL (≈ 1.76 µM) | 2 µg/mL (≈ 1.76 µM)
CC(C)C[C@@H]1NC(=O)[C@@H](CC2CCCCC2)NC(=O)[C@H](CCN)NC(=O)[C@@H](NC(=O)[C@H](CCN)NC(=O)[C@@H](NC(=O)[C@@H]2CNCCN2CC(C)C)C(C)O)CCNC(=O)[C@H]([C@@H](C)O)NC(=O)[C@H](CCN)NC(=O)[C@H](CCN)NC1=O (stereo partly drawn) [Example 52, (S)-1-isobutylpiperazine-2-carbonyl polymyxin [D-cyclohexylalanine]-6 nonapeptide] (X1-[Thr(3ξ)][Dab][Dab][Dab][dCha]L[Dab][Dab]T; lactam 3-C) | 0.25 µg/mL (≈ 0.22 µM) | 0.25 µg/mL (≈ 0.22 µM) | 8 µg/mL (≈ 7.03 µM) | 0.25 µg/mL (≈ 0.22 µM) |  | 8 µg/mL (≈ 7.03 µM) | 0.25 µg/mL (≈ 0.22 µM) | 0.5 µg/mL (≈ 0.44 µM) | 1 µg/mL (≈ 0.879 µM) | >64 µg/mL | >64 µg/mL | 16 µg/mL (≈ 14.1 µM) | 64 µg/mL (≈ 56.3 µM) | 16 µg/mL (≈ 14.1 µM) | 16 µg/mL (≈ 14.1 µM)
CC(C)C[C@@H]1NC(=O)[C@@H](CC2CCCCC2)NC(=O)[C@H](CCN)NC(=O)[C@@H](NC(=O)[C@H](CCN)NC(=O)[C@@H](NC(=O)C(CN)Cc2ccccc2F)[C@@H](C)O)CCNC(=O)[C@H]([C@@H](C)O)NC(=O)[C@H](CCN)NC(=O)[C@H](CCN)NC1=O (stereo partly shown) [Example 62, 3-amino-2-(2-fluorobenzyl) propanoyl] (X20-T[Dab][Dab][Dab][dCha]L[Dab][Dab]T; lactam 3-C) | 0.5 µg/mL (≈ 0.435 µM) | 0.5 µg/mL (≈ 0.435 µM) | 4 µg/mL (≈ 3.48 µM) | 0.125 µg/mL (≈ 0.109 µM) |  | 8 µg/mL (≈ 6.97 µM) | 0.125 µg/mL (≈ 0.109 µM) | 0.5 µg/mL (≈ 0.435 µM) | 0.5 µg/mL (≈ 0.435 µM) | >64 µg/mL | >64 µg/mL | 32 µg/mL (≈ 27.9 µM) | 64 µg/mL (≈ 55.7 µM) | 8 µg/mL (≈ 6.97 µM) | 16 µg/mL (≈ 13.9 µM)
